Results reported in US20250296971A1, “GASTRIC INHIBITORY PEPTIDE RECEPTOR LIGANDS” (priority 2021, published 2025).
pIC50: −log10 of the molar value. Like-named read-outs stand apart in the source and are kept apart here. *1 amine or outer side, *2 acyl side, *3 side chain or, on linkers, in order; H or OH if unused. Where a SMILES comes first, the peptide text is derived from it. Bridges are numbered along the chain shown (N, C = ends). Side-chain parts run from the residue outwards. [ ]: non-standard residue; d: D form. The star is where a group is joined. NH(1-deoxy-D-glucityl) = OC[C@@H](O)[C@@H](O)[C@H](O)[C@@H](O)CN*; DOTA = O=C(O)CN1CCN(CC(=O)O)CCN(CC(=O)*)CCN(CC(=O)O)CC1; Trp(5-Cl) = N[C@@H](Cc1c[nH]c2ccc(Cl)cc12)C(=O)O; Pyridine(2,6-diCH2) = c1cc(C[*:1])nc(C[*:2])c1; mXylylene = c1cc(C[*:1])cc(C[*:2])c1; Glutaryl = O=C(CCCC(=O)[*:2])[*:1]; Hyp = O=C(O)[C@@H]1C[C@@H](O)CN1; X1 = O=C(CN1CCC(N[*:1])CC1)[*:2]; Api = NC1(C(=O)O)CCNCC1

Experiments:
[1] = molecular target: T1, GIPR (CHO-K1-hGIPR cells) (Homo sapiens, UniProt P48546); assay: FACS binding assay; conditions: for IC50: read-out: pIC50 Category (converted)
T1 construct: host or cells: CHO-K1
T1 sequence (P48546 22-466): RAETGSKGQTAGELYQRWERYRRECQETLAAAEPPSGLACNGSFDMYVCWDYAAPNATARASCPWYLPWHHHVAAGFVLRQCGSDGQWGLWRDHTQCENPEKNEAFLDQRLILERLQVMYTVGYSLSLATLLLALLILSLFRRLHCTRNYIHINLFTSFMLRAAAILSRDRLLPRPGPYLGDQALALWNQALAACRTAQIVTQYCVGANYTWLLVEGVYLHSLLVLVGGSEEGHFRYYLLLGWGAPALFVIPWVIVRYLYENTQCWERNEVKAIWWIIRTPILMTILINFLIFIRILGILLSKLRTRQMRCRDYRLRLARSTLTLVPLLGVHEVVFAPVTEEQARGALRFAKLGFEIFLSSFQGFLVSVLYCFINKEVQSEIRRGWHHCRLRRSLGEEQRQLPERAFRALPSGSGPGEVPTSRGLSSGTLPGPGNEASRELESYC
Method in brief: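 CHO-K1 cells expressing human GIPR, washed in PBS/1% FCS, then stained with 1 μg/mL APC-streptavidin for 30 min on ice.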

[2] = molecular target: Recombinant soluble human NEP (Homo sapiens, UniProt P08473); assay: Proteolytic stability assay against NEP; conditions: NEP 100 ng/mL, compound 10 μM, 37° C., % intact compound remaining
Sequence of Recombinant soluble human NEP (P08473 52-750 limits assumed): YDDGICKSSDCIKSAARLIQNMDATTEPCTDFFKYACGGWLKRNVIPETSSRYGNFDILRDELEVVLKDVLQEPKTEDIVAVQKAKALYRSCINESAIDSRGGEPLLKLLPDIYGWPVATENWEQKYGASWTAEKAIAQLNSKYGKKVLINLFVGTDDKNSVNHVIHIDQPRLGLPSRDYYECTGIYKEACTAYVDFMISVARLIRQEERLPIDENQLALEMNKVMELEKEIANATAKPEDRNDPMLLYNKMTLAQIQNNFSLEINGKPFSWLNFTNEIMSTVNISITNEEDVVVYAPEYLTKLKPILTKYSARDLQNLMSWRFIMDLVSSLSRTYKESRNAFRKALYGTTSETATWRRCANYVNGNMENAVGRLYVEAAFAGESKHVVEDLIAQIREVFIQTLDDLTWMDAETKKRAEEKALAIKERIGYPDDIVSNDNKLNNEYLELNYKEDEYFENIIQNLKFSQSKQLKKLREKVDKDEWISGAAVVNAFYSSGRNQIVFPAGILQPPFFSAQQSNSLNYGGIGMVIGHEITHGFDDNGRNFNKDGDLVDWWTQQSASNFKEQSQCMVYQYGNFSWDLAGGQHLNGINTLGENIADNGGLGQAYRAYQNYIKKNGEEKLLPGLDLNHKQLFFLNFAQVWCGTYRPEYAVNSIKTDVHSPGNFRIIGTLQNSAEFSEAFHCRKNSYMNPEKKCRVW

[3] = Plasma stability assay, human plasma; type: in vitro ADME; conditions: 37° C., % intact compound remaining after 4 h or 24 h
Experimental: (§1) In order to determine the stability of selected compounds of the invention in human and mouse plasma, a plasma stability assay was carried out. Such plasma stability assay measures degradation of compounds of the present invention in blood plasma. This is an important characteristic of a compound as compounds, with the exception of pro-drugs, which rapidly degrade in plasma, generally show poor in vivo efficacy. […] The stability is sufficient for the diagnostic, therapeutic and theragnostic use of these compounds according to the present invention.
(§2) The plasma stability samples were prepared by spiking 50 μL plasma aliquots (all K2EDTA) with 1 μL of a 0.5 mM compound stock solution in DMS0. After vortexing the samples were incubated in a Thermomixer at 37° C. for 0, 4 and 24 hours. After incubation the samples were stored on ice until further treatment. All samples were prepared in duplicates.
(§3) A suitable internal standard was added to each sample (1 μL of a 0.5 mM stock solution in DMSO). Protein precipitation was performed by addition of 250 μL of acetonitrile containing 1% trifluoroacetic acid. After incubation at room temperature for 30 min the precipitate was separated by centrifugation and 150 μL of the supernatant was diluted with 150 μL of 1% aqueous formic acid.
(§4) Additionally, recovery was determined by spiking a pure plasma sample that only contained the internal standard after treatment with a certain amount of the compound.
(§5) Carry-over was evaluated by analysis of a blank sample (20% acetonitrile) after the highest calibration sample.

[4] = Plasma stability assay, mouse plasma; type: in vitro ADME; conditions: 37° C., % intact compound remaining after 4 h or 24 h
Experimental: as §1, §2, §3, §4, §5

[5] = competition with 20 nM GIP-057, 4° C., 1 hour
[6] = competition with 20 nM GIP-057, 4° C. for 1 hour

Compound	IC50 [1, 5]	NEP stability category [2]	pIC50 ([1]; pIC50 Category, competition with 20 nM GIP-057, 4° C., 1 hour)	Human plasma stability category [3]	Mouse plasma stability category [4]	IC50 [1, 6]
CC[C@H](C)[C@@H]1NC(=O)[C@H](CC(C)C)NC(=O)C2(CCN(C(=O)CCCC(=O)NC[C@H](O)[C@@H](O)[C@H](O)[C@H](O)CO)CC2)NC(=O)[C@@H](NC(=O)[C@@H](CC(C)C)NC(=O)[C@H](CCC(=O)O)NC(=O)[C@@H]2C[C@@H](O)CN2C(=O)[C@H](Cc2c[nH]c3ccc(Cl)cc23)NC(=O)[C@H](Cc2c[nH]c3ccccc23)NC(=O)[C@H](CC(=O)O)NC(=O)CN2CCC(NC(=O)[C@@H](CCC(=O)NC[C@H](O)[C@@H](O)[C@H](O)[C@H](O)CO)NC(=O)CN3CCN(CC(=O)O)CCN(CC(=O)O)CCN(CC(=O)O)CC3)CC2)CSCc2cccc(n2)CSC[C@@H](C(=O)NC2CCN(CC(=O)N[C@H](CCC(=O)NC[C@H](O)[C@@H](O)[C@H](O)[C@H](O)CO)C(N)=O)CC2)NC1=O [GIP-003, DOTA-glu(AGLU)-APAc-Asp-Trp-5Clw-Hyp-Glu-leu-[Cys(2Lut)-Apc(AGLU-Glutar)-Leu-Ile-Cys]-APAc-glu(AGLU)-NH2] ({DOTA}-[dE](NH(1-deoxy-D-glucityl))[X1]DW[Trp(5-Cl)][Hyp]E[dL]C[Api]([Glutaryl-NH(1-deoxy-D-glucityl)])LIC[X1][dE](NH(1-deoxy-D-glucityl))-NH2; linker 9-13 via Pyridine(2,6-diCH2))	< 10 nM	A (>80% intact after 24 hours)	–	–	–	–
CC[C@H](C)[C@@H]1NC(=O)[C@H](CC(C)C)NC(=O)C2(CCN(C(=O)CN3CCN(CC(=O)O)CCN(CC(=O)O)CCN(CC(=O)O)CC3)CC2)NC(=O)[C@@H](NC(=O)[C@@H](CC(C)C)NC(=O)[C@H](CCC(=O)O)NC(=O)[C@@H]2C[C@@H](O)CN2C(=O)[C@H](Cc2c[nH]c3ccc(Cl)cc23)NC(=O)[C@H](Cc2c[nH]c3ccccc23)NC(=O)[C@H](CC(=O)O)NC(=O)CN2CCC(NC(=O)CCOCCOCCOCCOCCOCCOCCOCCOCCOCCOCCOCCOCCOCCOCCOCCOCCOCCOCCOCCOCCOCCOCCOCCOCCOCCOCCOCCOCCOCCOCCOCCOCCOCCOCCOCCOCCOC)CC2)CSCc2cccc(n2)CSC[C@@H](C(=O)N[C@H](CCC(=O)NC[C@H](O)[C@@H](O)[C@H](O)[C@H](O)CO)C(N)=O)NC1=O [GIP-040, Me036PEG-APAc-Asp-Trp-5Clw-Hyp-Glu-leu-[Cys(2Lut)-Apc(DOTA)-Leu-Ile-Cys]-glu(AGLU)-NH2]	–	A (>80% intact after 24 hours)	7.10 to 8.00	–	–	–
CC[C@H](C)[C@@H]1NC(=O)[C@H](CC(C)C)NC(=O)[C@H](C)NC(=O)[C@@H](NC(=O)[C@H](CC(C)C)NC(=O)[C@H](CCC(=O)O)NC(=O)[C@@H]2CCCN2C(=O)[C@H](Cc2c[nH]c3ccccc23)NC(=O)[C@H](Cc2c[nH]c3ccccc23)NC(=O)[C@H](CC(=O)O)NC(=O)[C@H](Cc2ccc(O)cc2)NC(C)=O)CSCc2cccc(c2)CSC[C@@H](C(N)=O)NC1=O [GIP-240, Ac-Tyr-Asp-Trp-Trp-Pro-Glu-Leu-[Cys(3MeBn)-Ala-Leu-Ile-Cys]-NH2] (Ac-YDWWPELCALIC-NH2; linker 8-12 via mXylylene)	10 to 79.4 nM	–	–	B (>80% intact after 4 hours)	B (>80% intact after 4 hours)	–
CC[C@H](C)[C@@H]1NC(=O)[C@H](CC(C)C)NC(=O)[C@H](CCC(N)=O)NC(=O)[C@@H](NC(=O)[C@H](CC(C)C)NC(=O)[C@H](CCC(=O)O)NC(=O)[C@@H]2CCCN2C(=O)[C@H](Cc2c[nH]c3ccccc23)NC(=O)[C@H](Cc2c[nH]c3ccccc23)NC(=O)[C@H](CC(=O)O)NC(=O)[C@H](Cc2ccc(O)cc2)NC(=O)[C@@H](N)CCSC)CSCc2cccc(c2)CSC[C@@H](C(N)=O)NC1=O [GIP-241] (H-MYDWWPELCQLIC-NH2; linker 9-13 via mXylylene)	10 to 79.4 nM	–	–	B (>80% intact after 4 hours)	C (≥50% intact after 4 hours)	–
CC[C@H](C)[C@@H]1NC(=O)[C@H](CC(C)C)NC(=O)[C@H]([C@@H](C)O)NC(=O)[C@@H](NC(=O)[C@H](CC(C)C)NC(=O)[C@H](CCC(=O)O)NC(=O)[C@@H]2CCCN2C(=O)[C@H](Cc2c[nH]c3ccccc23)NC(=O)[C@H](Cc2c[nH]c3ccccc23)NC(=O)[C@H](CC(=O)O)NC(=O)[C@H](Cc2ccc(O)cc2)NC(=O)[C@@H](N)CCSC)CSCc2cccc(c2)CSC[C@@H](C(N)=O)NC1=O [GIP-242] (H-MYDWWPELCTLIC-NH2; linker 9-13 via mXylylene)	10 to 79.4 nM	–	–	B (>80% intact after 4 hours)	C (≥50% intact after 4 hours)	–
CC[C@H](C)[C@@H]1NC(=O)[C@H](CC(C)C)NC(=O)[C@H](C)NC(=O)[C@@H](NC(=O)[C@H](CC(C)C)NC(=O)[C@@H](CCC(=O)O)NC(=O)[C@@H]2CCCN2C(=O)[C@H](Cc2c[nH]c3ccccc23)NC(=O)[C@H](Cc2c[nH]c3ccccc23)NC(=O)[C@H](CC(=O)O)NC(=O)[C@H](Cc2ccc(O)cc2)NC(=O)[C@@H](N)CCSC)CSCc2cccc(c2)CSC[C@@H](C(N)=O)NC1=O [GIP-245, H-Met-Tyr-Asp-Trp-Trp-Pro-glu-Leu-[Cys(3MeBn)-Ala-Leu-Ile-Cys]-NH2] (H-MYDWWP[dE]LCALIC-NH2; linker 9-13 via mXylylene)	–	–	–	B (>80% intact after 4 hours)	D (<50% intact after 4 hours)	10 to 79.4 nM
CC[C@H](C)[C@@H]1NC(=O)[C@H](CC(C)C)NC(=O)[C@H](C)NC(=O)[C@@H](NC(=O)[C@H](CC(C)C)NC(=O)[C@H](CCC(=O)O)NC(=O)[C@@H]2CCCN2C(=O)[C@H](Cc2c[nH]c3ccccc23)NC(=O)[C@H](Cc2c[nH]c3ccccc23)NC(=O)[C@H](CC(=O)O)NC(=O)[C@@H](Cc2ccc(O)cc2)NC(=O)[C@@H](N)CCSC)CSCc2cccc(c2)CSC[C@@H](C(N)=O)NC1=O [GIP-246, H-Met-tyr-Asp-Trp-Trp-Pro-Glu-Leu-[Cys(3MeBn)-Ala-Leu-Ile-Cys]-NH2] (H-M[dY]DWWPELCALIC-NH2; linker 9-13 via mXylylene)	–	–	–	B (>80% intact after 4 hours)	B (>80% intact after 4 hours)	10 to 79.4 nM
CC[C@H](C)[C@@H]1NC(=O)[C@H](CC(C)C)NC(=O)[C@H](C)NC(=O)[C@@H](NC(=O)[C@@H](CC(C)C)NC(=O)[C@H](CCC(=O)O)NC(=O)[C@@H]2CCCN2C(=O)[C@H](Cc2c[nH]c3ccccc23)NC(=O)[C@H](Cc2c[nH]c3ccccc23)NC(=O)[C@H](CC(=O)O)NC(=O)[C@H](Cc2ccc(O)cc2)NC(=O)[C@@H](N)CCSC)CSCc2cccc(c2)CSC[C@@H](C(N)=O)NC1=O [GIP-247, H-Met-Tyr-Asp-Trp-Trp-Pro-Glu-leu-[Cys(3MeBn)-Ala-Leu-Ile-Cys]-NH2] (H-MYDWWPE[dL]CALIC-NH2; linker 9-13 via mXylylene)	–	–	–	C (≥50% intact after 4 hours)	D (<50% intact after 4 hours)	10 to 79.4 nM
CC[C@H](C)[C@@H]1NC(=O)[C@H](CC(C)C)NC(=O)[C@@H](C)NC(=O)[C@@H](NC(=O)[C@H](CC(C)C)NC(=O)[C@H](CCC(=O)O)NC(=O)[C@@H]2CCCN2C(=O)[C@H](Cc2c[nH]c3ccccc23)NC(=O)[C@H](Cc2c[nH]c3ccccc23)NC(=O)[C@H](CC(=O)O)NC(=O)[C@H](Cc2ccc(O)cc2)NC(=O)[C@@H](N)CCSC)CSCc2cccc(c2)CSC[C@@H](C(N)=O)NC1=O [GIP-248] (H-MYDWWPELC[dA]LIC-NH2; linker 9-13 via mXylylene)	–	–	–	B (>80% intact after 4 hours)	D (<50% intact after 4 hours)	10 to 79.4 nM
